Test results reported in ChEMBL document CHEMBL2073790, “TP-search Transporter Database” (Jpn Pharmacol Ther, 1998).

Assays:
[1] = molecular target: Multidrug resistance protein 1a (Rattus norvegicus) (UniProt Q6PSM0); assay: (§1) TP_TRANSPORTER: Northern blot in vivo Wistar rat; type: functional, organism-based
[2] = molecular target: T1, Solute carrier organic anion transporter family member 1A1 (Rattus norvegicus, UniProt P46720); assay: as §1; type: functional, organism-based
T1 sequence (P46720 whole entry): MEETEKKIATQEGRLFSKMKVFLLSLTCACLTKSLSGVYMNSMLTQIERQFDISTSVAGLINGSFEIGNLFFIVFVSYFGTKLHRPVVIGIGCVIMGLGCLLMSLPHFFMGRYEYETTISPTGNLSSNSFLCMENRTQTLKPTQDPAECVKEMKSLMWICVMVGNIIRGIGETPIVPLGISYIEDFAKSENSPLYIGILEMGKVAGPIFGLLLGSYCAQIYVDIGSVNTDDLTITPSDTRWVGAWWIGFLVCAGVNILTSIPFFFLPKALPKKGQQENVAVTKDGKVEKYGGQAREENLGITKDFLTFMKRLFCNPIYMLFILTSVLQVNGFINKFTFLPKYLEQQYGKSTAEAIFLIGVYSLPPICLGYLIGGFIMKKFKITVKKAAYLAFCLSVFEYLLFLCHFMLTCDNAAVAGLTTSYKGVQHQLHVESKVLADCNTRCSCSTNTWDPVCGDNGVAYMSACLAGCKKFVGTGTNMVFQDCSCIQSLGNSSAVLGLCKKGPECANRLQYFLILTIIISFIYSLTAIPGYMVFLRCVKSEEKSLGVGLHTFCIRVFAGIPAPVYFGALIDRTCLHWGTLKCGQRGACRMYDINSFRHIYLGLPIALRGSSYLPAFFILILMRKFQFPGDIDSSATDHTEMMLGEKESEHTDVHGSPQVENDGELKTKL

Sequence of Multidrug resistance protein 1a (Rattus norvegicus) (Q6PSM0 as listed by the source): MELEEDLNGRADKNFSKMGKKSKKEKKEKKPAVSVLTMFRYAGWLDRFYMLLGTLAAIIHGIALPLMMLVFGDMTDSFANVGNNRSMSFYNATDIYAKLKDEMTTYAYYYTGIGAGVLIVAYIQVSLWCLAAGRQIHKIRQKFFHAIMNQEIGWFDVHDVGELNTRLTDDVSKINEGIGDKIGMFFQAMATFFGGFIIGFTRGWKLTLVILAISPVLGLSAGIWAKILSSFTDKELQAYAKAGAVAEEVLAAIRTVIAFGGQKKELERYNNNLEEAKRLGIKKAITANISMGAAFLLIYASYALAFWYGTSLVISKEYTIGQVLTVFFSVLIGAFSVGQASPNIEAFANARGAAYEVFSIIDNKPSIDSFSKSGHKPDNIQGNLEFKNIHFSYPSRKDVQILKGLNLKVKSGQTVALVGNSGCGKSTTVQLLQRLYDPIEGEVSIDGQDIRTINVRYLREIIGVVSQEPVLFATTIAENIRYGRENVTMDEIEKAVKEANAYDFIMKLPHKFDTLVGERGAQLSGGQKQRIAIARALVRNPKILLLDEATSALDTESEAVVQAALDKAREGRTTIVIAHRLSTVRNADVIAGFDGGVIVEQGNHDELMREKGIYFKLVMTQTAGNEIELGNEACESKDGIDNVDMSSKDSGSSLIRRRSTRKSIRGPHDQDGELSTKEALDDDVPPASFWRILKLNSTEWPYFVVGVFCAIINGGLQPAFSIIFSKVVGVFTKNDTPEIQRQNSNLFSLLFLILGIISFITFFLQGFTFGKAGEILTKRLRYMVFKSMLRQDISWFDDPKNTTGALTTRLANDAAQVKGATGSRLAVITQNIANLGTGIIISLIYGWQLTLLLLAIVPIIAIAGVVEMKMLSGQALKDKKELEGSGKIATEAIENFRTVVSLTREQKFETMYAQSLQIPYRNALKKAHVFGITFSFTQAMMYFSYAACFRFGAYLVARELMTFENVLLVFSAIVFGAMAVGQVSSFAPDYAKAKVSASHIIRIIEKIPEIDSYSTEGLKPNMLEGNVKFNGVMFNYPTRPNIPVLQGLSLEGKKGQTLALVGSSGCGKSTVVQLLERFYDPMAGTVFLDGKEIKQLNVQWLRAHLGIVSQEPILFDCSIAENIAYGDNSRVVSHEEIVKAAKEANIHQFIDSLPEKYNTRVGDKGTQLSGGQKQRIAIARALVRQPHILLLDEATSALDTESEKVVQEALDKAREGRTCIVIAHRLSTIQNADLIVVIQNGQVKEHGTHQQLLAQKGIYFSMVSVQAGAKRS

**Q.** O=C=Nc1cccc2ccccc12 [alpha-naphthylisocyanate] was tested. Which Activity [1] did it give?
**A.** inducer [+]

**Q.** And the Activity [2]?
**A.** inducer [+]
